Source: patent US8680282B2, “Cyclic inhibitors of carnitine palmitoyltransferase and treating cancer” (University Health Network, priority 2007, dated 2014)

Tests used:
[1] = test system: HCT-15; test: Cancer cell growth inhibition, SRB assay; assay type: cell-based, human; parameters: Percentage of Growth Inhibition: scale not given here; details: SRB at Day 6; for GI50: Homo sapiens, 144 h, HCT-15 (Colon), triplicate; for Percentage of Growth Inhibition: HCT-15, at 10 μM, NE = no activity at 10 micromolar
[2] = molecular target: T1, human CPT1A (Homo sapiens, UniProt P50416); test: Human CPT1A LC/MS assay; assay type: biochemical; details: human CPT1A LC/MS assay, dose response format
T1 construct: made in house; host or cells: Saccharomyces cerevisiae (pESC-trp) or cultured mammalian cells (pCDNA3.1); mitochondrial extract
T1 sequence (P50416 1-773): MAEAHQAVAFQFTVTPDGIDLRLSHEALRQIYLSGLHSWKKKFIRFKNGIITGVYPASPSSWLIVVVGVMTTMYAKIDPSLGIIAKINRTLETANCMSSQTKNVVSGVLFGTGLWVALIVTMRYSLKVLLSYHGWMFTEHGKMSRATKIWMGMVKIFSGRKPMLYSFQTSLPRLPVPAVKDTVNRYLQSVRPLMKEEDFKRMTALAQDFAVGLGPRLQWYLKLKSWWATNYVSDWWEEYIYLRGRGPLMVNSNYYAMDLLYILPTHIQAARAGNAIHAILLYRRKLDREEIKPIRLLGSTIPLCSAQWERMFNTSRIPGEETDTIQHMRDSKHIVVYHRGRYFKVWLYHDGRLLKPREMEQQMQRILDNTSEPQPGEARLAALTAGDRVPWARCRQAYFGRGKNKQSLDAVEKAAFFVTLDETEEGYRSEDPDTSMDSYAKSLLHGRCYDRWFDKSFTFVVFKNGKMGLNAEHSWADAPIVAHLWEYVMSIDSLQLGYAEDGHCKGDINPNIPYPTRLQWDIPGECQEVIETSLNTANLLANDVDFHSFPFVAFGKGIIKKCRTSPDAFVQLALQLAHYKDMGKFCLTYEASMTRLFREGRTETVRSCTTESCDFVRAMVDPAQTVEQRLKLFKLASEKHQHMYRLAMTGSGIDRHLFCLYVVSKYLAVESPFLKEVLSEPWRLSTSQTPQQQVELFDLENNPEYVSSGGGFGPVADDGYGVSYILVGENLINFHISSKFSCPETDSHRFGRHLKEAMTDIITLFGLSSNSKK
Text: Nucleotide sequences encoding human CPT1 enzymes were individually cloned into the yeast expression vector pESC-trp at the Cla1 (5′ terminus) and Pac1 (3′ terminus) restriction sites by PCR amplification of the open reading frame using oligonucleotide primers designed to encode the wild-type CPT1 protein sequence. Standard molecular biology techniques were used to transform and express the CPT1 proteins in the yeast Saccharomyces cerevisiae. The yeast cells were lysed by enzymatic degradation of the cell wall by Zymolase, and the mitochondria were isolated by standard biochemical techniques. The integrity of the isolated mitochondria was monitored by determining the activity of succinate dehydrogenase in the mitochondrial preparations. The mitochondrial extracts were stored at −80° C. in buffer containing 10 mM HEPES pH 7.4 and 250 mM sucrose.
Human CPT1 (A, B, C) genes were additionally cloned into the pCDNA3.1 vector individually for expression in cultured mammalian cells. Cells expressing the exogenous CPT1A were identified and grown under standard conditions. Mammalian cells were harvested, and mitochondrial extracts prepared using standard biochemical methods. The mitochondrial extracts were stored at −80° C. in buffer containing 10 mM HEPES pH 7.4 and 250 mM sucrose.
Assays were performed in 96-well plate format. Each 100 μL reaction contained 40 mM KCl, 50 mM TrisHCl pH 7.5, and 250 mM mannitol (Assay Buffer), and 1.6 μg protein of an extract, 20 μM palmitoyl-CoA, 50 μM L-carnitine, and 10 ug/mL BSA. Reactions were incubated at room temperature and stopped after 10 minutes by extraction with 200 μL of water saturated n-butanol containing myristoyl carnitine (500 nM) as an internal standard. The samples were thoroughly mixed, and the phases separated by centrifugation. Samples were prepared for analysis with a 10 fold dilution of the n-butanol phase containing the reaction product palmitoyl carnitine into a 50:50 (acetonitrile:water) solvent for analysis. 5 μL of prepared sample was separated on a Phenomenex Jupiter 5μ C4 reverse-phase column using an Agilent 1100 HPLC with a gradient from 50% acetonitrile (0.5% acetic acid) to 100% acetonitrile and quantified by detection with a Bruker Esquire 3000plus mass spectrometer. The abundance of the palmitoyl carnitine product was determined relative to the internal standard and the actual quantity of palmitoyl carnitine can be determined from a standard curve prepared using the n-butanol solution containing the internal standard.
Compounds were evaluated in two formats, a screening format, and a dose response format. The screening format was performed by adding 25 μL compound in 20% DMSO and Assay Buffer to 25 μL of extract containing […] and Assay Buffer, followed by a 10 minute incubation at room temperature. 50 μL of 40 μM palmitoyl-CoA in Assay Buffer was added to the reaction mixture, mixed and incubated for 10 minutes at room temperature. A negative control for activity was also performed where the carnitine was omitted from the reaction. A positive control for activity was also performed by omitting compound from the solution containing 20% DMSO and Assay Buffer. The reaction mixture was extracted and analyzed as described above. The inhibition by compound was determined by comparing the control relative activity to the relative activity observed in wells containing the compound. Relative activity was determined by subtracting the relative intensity (area palmitoyl carnitine/area myristoyl carnitine) observed in the negative control from the relative intensity observed in the experimental well, and dividing by the relative activity observed in the positive control.
[formula] Compound characterization by dose response format was performed using the above described assay conditions and a 16 point compound titration in 2 fold compound dilution steps. The DMSO concentration was kept constant at 20% (v/v) for all compound concentrations.

SMILES	GI50 [1] [µM]	IC50 [2] [µM]	Percentage of Growth Inhibition [1] [%]
CCCCCCCCc1ccc(NC(=O)NC2(CC(=O)O)CC[N+](C)(C)CC2)cc1 [Example S2, 4-(Carboxymethyl)-1,1-dimethyl-4-(3-(4-octylphenyl)ureido)piperidinium 2,2,2-trifluoroacetate]	3	10 to 100	
CCCCCc1ccc(S(=O)(=O)NC2(CC(=O)O)CCN(C)CC2)cc1 [Example S3, 4-(carboxymethyl)-1-methyl-4-(4-pentylphenylsulfonamido)piperidinium 2,2,2-trifluoroacetate]		10 to 100	0.06515
CCCCCc1ccc(S(=O)(=O)NC2(CC(=O)O)CC[N+](C)(C)CC2)cc1 [Example S4, 4-(Carboxymethyl)-1,1-dimethyl-4-(4-pentylphenylsulfonamido)piperidinium 2,2,2-trifluoroacetate]	> 50	≤ 1	
C[N+]1(C)CCC(CC(=O)O)(NC(=O)c2ccc(CCc3ccccc3)o2)CC1 [Example S5, 4-(Carboxymethyl)-1,1-dimethyl-4-(5-phenethylfuran-2-carboxamido)-piperidinium 2,2,2-trifluoroacetate]		1 to 10	
C[N+]1(C)CCC(CC(=O)O)(NC(=O)c2ccc(C#Cc3ccccc3)o2)CC1 [Example S6, 4-(Carboxymethyl)-1,1-dimethyl-4-(5-(phenylethynyl)furan-2-carboxamido)-piperidinium 2,2,2-trifluoroacetate]		100 to 1000	
CCCCCCCCc1ccc(NS(=O)(=O)NC2(CC(=O)O)CCN(C)CC2)cc1 [Example S7, 4-(carboxymethyl)-1-methyl-4-(N-(4-octylphenyl)sulfamoylamino)-piperidinium 2,2,2-trifluoroacetate]	80	10 to 100	
CCCCCCCCc1ccc(NS(=O)(=O)NC2(CC(=O)O)CC[N+](C)(C)CC2)cc1 [Example S8, 4-(carboxymethyl)-1,1-dimethyl-4-(N-(4-octylphenyl)sulfamoylamino)piperidinium 2,2,2-trifluoroacetate]	9	1 to 10	
CCCCCCCCc1ccc(NC(=O)NC2(CC(=O)O)CCC[NH+](C)C2)cc1 (stereo not drawn) [Example S9, 3-(Carboxymethyl)-1-methyl-3-(3-(4-octylphenyl)ureido)piperidinium 2,2,2-trifluoroacetate]		10 to 100	
CCCCCCCCc1ccc(NC(=O)NC2(CC(=O)O)CCC[N+](C)(C)C2)cc1 (stereo not drawn) [Example S10, 3-(carboxymethyl)-1,1-dimethyl-3-(3-(4-octylphenyl)ureido)-piperidinium 2,2,2-trifluoroacetate]	16	10 to 100	
CCCCCCCCc1ccc(NS(=O)(=O)NC2(CC(=O)O)CCCN(C)C2)cc1 (stereo not drawn) [Example S15, 3-(carboxymethyl)-1-methyl-3-(N-(4-octylphenyl)sulfamoylamino)-piperidinium 2,2,2-trifluoroacetate]	32	10 to 100	
CCCCCCCCc1ccc(NS(=O)(=O)NC2(CC(=O)O)CCC[N+](C)(C)C2)cc1 (stereo not drawn) [Example S16, 3-(carboxymethyl)-1,1-dimethyl-3-(N-(4-octylphenyl)sulfamoylamino)-piperidinium 2,2,2-trifluoroacetate]	36	1 to 10	
CCCCCCCCc1ccc(NC(=O)NC2(CC(=O)O)CC[N+](C)(C)C2)cc1 (stereo not drawn) [Example S18, 3-(carboxymethyl)-1,1-dimethyl-3-(3-(4-octylphenyl)ureido)-pyrrolidinium 2,2,2-trifluoroacetate]	5.4	10 to 100	
CCCCCc1ccc(S(=O)(=O)NC2(CC(=O)O)CC[N+](C)(C)C2)cc1 (stereo not drawn) [Example S20, 3-(carboxymethyl)-1,1-dimethyl-3-(4-pentylphenylsulfonamido)-pyrrolidinium 2,2,2-trifluoroacetate]		1 to 10	
CCCCCCCCCCc1ccc(C(=O)NC2(CC(=O)O)CCN(C)C2)cc1 (stereo not drawn) [Example S21, 3-(carboxymethyl)-3-(4-decylbenzamido)-1-methylpyrrolidinium 2,2,2-trifluoroacetate]		10 to 100	0.04235
CCCCCCCCCCc1ccc(C(=O)NC2(CC(=O)O)CC[N+](C)(C)C2)cc1 (stereo not drawn) [Example S22, 3-(Carboxymethyl)-3-(4-decylbenzamido)-1,1-dimethylpyrrolidinium 2,2,2-trifluoroacetate]		1 to 10	0.07473
CCCCCCCCc1ccc(NC(=O)NC2(CC(=O)O)CNC2)cc1 [Example S23, 3-(carboxymethyl)-3-(3-(4-octylphenyl)ureido)azetidinium 2,2,2-trifluoroacetate]	28	1000 to 2500	
CCCCCCCCc1ccc(NC(=O)NC2(CC(=O)O)C[N+](C)(C)C2)cc1 [Example S24, 3-(Carboxymethyl)-1,1-dimethyl-3-(3-(4-octylphenyl)ureido)azetidinium 2,2,2-trifluoroacetate]	38	10 to 100	
O=C(O)CC1(NC(=O)c2ccc(C#Cc3ccccc3)o2)CNC1 [Example S26, 3-(carboxymethyl)-3-(5-(phenylethynyl)furan-2-carboxamido)-azetidinium 2,2,2-trifluoroacetate]		100 to 1000	
CCCCCc1ccc(S(=O)(=O)NC2(CC(=O)O)CN(C)C2)cc1 [Example S27, 3-(carboxymethyl)-1-methyl-3-(4-pentylphenylsulfonamido)azetidinium 2,2,2-trifluoroacetate]		10 to 100	
CCCCCc1ccc(S(=O)(=O)NC2(CC(=O)O)C[N+](C)(C)C2)cc1 [Example S29, 3-(carboxymethyl)-1,1-dimethyl-3-(4-pentylphenylsulfonamido)-azetidinium 2,2,2-trifluoroacetate]	> 50	10 to 100	
CCCCCCCCc1ccc(N(C)S(=O)(=O)NC2(CC(=O)O)CCC[N+](C)(C)C2)cc1 (stereo not drawn) [Example S30, 3-(carboxymethyl)-1,1-dimethyl-3-(N-methyl-N-(4-octylphenyl)-sulfamoylamino)piperidinium 2,2,2-trifluoroacetate]	14	10 to 100	
